Measurements taken from ChEMBL document CHEMBL4651402, “Screening of ~5500 FDA-approved drugs and clinical candidates for anti-SARS-CoV-2 activity” (2021).

Tested on: SARS-CoV-2
Assay: microbe, parasite or virus in culture
Conditions: Severe acute respiratory syndrome coronavirus 2, Vero C1008, 48 h

Row | Structure (SMILES) | IC50 | IC50 (read-out: pIC50 (converted))
1 | O=C1[C@H]2CCCC[C@H]2C(=O)N1CCCCN1CCN(c2nsc3ccccc23)CC1 [PEROSPIRONE] | > 20 µM | > 20 µM
2 | OCCN1CCN(CCCN2c3ccccc3Sc3ccc(Cl)cc32)CC1 [PERPHENAZINE] | > 20 µM | > 20 µM
3 | OCC(O)C(O)C(O)C(O)C(O)CO (stereo not drawn) [PERSEITOL] | > 20 µM | > 20 µM
4 | CO[C@H]1[C@H](O)[C@H](O[C@H]2CC[C@@]3(C=O)[C@H](CC[C@@H]4[C@@H]3CC[C@]3(C)[C@@H](C5=CC(=O)OC5)CC[C@]43O)C2)O[C@@H](C)[C@@H]1O [PERUVOSIDE] | > 20 µM | > 20 µM
5 | NS(=O)(=O)OC[C@@H]1C[C@@H](n2ccc3c(N[C@H]4CCc5ccccc54)ncnc32)C[C@@H]1O [PEVONEDISTAT] | > 20 µM | > 20 µM
6 | FC(F)(F)c1ccc(CNc2ccc(Cc3c[nH]c4ncc(Cl)cc34)cn2)cn1 [PEXIDARTINIB] | > 20 µM | > 20 µM
7 | CCCOCCn1c(=O)c(N2CCN(CCO)CC2)nc2cnc(-c3ccc(OC)nc3)cc21 [PF-03049423] | > 20 µM | > 20 µM
8 | COc1ccc(-c2cc3c(C)nc(N)nc3n([C@H]3CC[C@H](OCCO)CC3)c2=O)cn1 [PF-04691502] | > 20 µM | > 20 µM
9 | Nc1[nH]ncc1-c1cc(Cl)ccc1Oc1cc(F)c(S(=O)(=O)Nc2cscn2)cc1Cl [PF-05089771] | > 20 µM | > 20 µM
10 | C=CC(=O)N1C[C@H](COc2nc(Nc3cnn(C)c3)nc3[nH]cc(Cl)c23)[C@@H](OC)C1 [PF-06459988] | > 20 µM | > 20 µM
11 | CCOc1cccnc1Oc1cncc(-c2ncc(C(=O)N[C@H]3CCOC3)cn2)c1 [PF-06865571] | > 20 µM | > 20 µM
12 | CNC(=O)c1ccc(C)c(-n2c(C)cc(OCc3ccc(F)cc3F)c(Br)c2=O)c1 [PH-797804] | > 20 µM | > 20 µM
13 | O=C1C(=O)c2ncccc2-c2cccnc21 [PHANQUONE] | > 20 µM | > 20 µM
14 | CCOc1ccc(/N=C(\C)Nc2ccc(OCC)cc2)cc1 [PHENACAINE] | > 20 µM | > 20 µM
15 | NC(=O)NC(=O)Cc1ccccc1 [PHENACEMIDE] | > 20 µM | > 20 µM
16 | CCOc1ccc(NC(C)=O)cc1 [PHENACETIN] | > 20 µM | > 20 µM
17 | CCC(=O)C(CC(C)N1CCOCC1)(c1ccccc1)c1ccccc1 (stereo not drawn) [PHENADOXONE] | > 20 µM | > 20 µM
18 | CC1C2Cc3ccc(O)cc3C1(C)CCN2CCc1ccccc1 (stereo not drawn) [PHENAZOCINE] | > 20 µM | > 20 µM
19 | Nc1ccc(/N=N/c2ccccc2)c(N)n1 [PHENAZOPYRIDINE] | > 20 µM | > 20 µM
20 | CCN(CC)CCSC(=O)N(c1ccccc1)c1ccccc1 [PHENCARBAMIDE] | > 20 µM | > 20 µM

Row | Structure (SMILES) | IC50 | IC50 (read-out: pIC50 (converted))
21 | c1ccc(C2(N3CCCCC3)CCCCC2)cc1 [PHENCYCLIDINE] | > 20 µM | > 20 µM
22 | NNCCc1ccccc1 [PHENELZINE] | > 20 µM | > 20 µM
23 | CC(Oc1ccccc1)C(=O)N[C@@H]1C(=O)N2[C@@H]1SC(C)(C)[C@@H]2C(=O)O (stereo partly drawn) [PHENETHICILLIN] | > 20 µM | > 20 µM
24 | CCC(C(=O)NC(N)=O)c1ccccc1 (stereo not drawn) [PHENETURIDE] | > 20 µM | > 20 µM
25 | N=C(N)NC(=N)NCCc1ccccc1 [PHENFORMIN] | > 20 µM | > 20 µM
26 | NCC(CC(=O)O)c1ccccc1 (stereo not drawn) [PHENIBUT] | > 20 µM | > 20 µM
27 | NC(=O)NNc1ccccc1 [PHENICARBAZIDE] | > 20 µM | > 20 µM
28 | CN1CCC2=C(C1)C(c1ccccc1)c1ccccc12 (stereo not drawn) [PHENINDAMINE] | > 20 µM | > 20 µM
29 | O=C1c2ccccc2C(=O)C1c1ccccc1 [PHENINDIONE] | > 20 µM | > 20 µM
30 | CC(Cc1ccccc1)NN (stereo not drawn) [PHENIPRAZINE] | > 20 µM | > 20 µM
31 | CN(C)CCC(c1ccccc1)c1ccccn1 (stereo not drawn) [PHENIRAMINE] | > 20 µM | > 20 µM
32 | CC1NCCOC1c1ccccc1 (stereo not drawn) [PHENMETRAZINE] | > 20 µM | > 20 µM
33 | CCC1(c2ccccc2)C(=O)NC(=O)NC1=O [PHENOBARBITAL] | > 20 µM | > 20 µM
34 | O=C1OC(c2ccc(O)cc2)(c2ccc(O)cc2)c2ccccc21 [PHENOLPHTHALEIN] | > 20 µM | > 20 µM
35 | Oc1ccccc1 [PHENOL] | > 20 µM | > 20 µM
36 | CCOC(=O)C1(c2ccccc2)CCN(CCC(O)c2ccccc2)CC1 (stereo not drawn) [PHENOPERIDINE] | > 20 µM | > 20 µM
37 | c1ccc2c(c1)Nc1ccccc1S2 [PHENOTHIAZINE] | > 20 µM | > 20 µM
38 | NC(=O)OCCCc1ccccc1 [PHENPROBAMATE] | > 20 µM | > 20 µM
39 | CCC(c1ccccc1)c1c(O)c2ccccc2oc1=O (stereo not drawn) [PHENPROCOUMON] | > 20 µM | > 20 µM
